In US9023336B2, “Deuterium-enriched aldehydes” (Protia, LLC, priority 2013, dated 2015):

Test: Measurement of aldehyde oxidations (air autoxidation of aldehyde to carboxylic acid)
Type: physicochemical
Settings: for amount of aldehyde remaining / loss of aldehyde: after 24 hours; for amount of aldehyde remaining: aldehyde 1 mmol in triacetin 2.0 mL + water 0.10 mL, stirred at room temperature under air, HPLC (benzaldehyde) or GC (hexanal); for loss of aldehyde: triacetin/water, room temperature, air
Description: General Procedure for Measurement of Aldehyde Oxidations
To a 12 mL clear, colorless, glass vial, fitted with a stir bar, was added the aldehyde (1 mmol), triacetin (2.0 mL), and water (0.10 mL, purified by reverse osmosis). The top of the vial was covered with a tissue and the mixture was stirred vigorously at room temperature. In the benzaldehyde reactions, (both H and D), 4.0 μL aliquots were withdrawn at 0, 0.5, 18, 25, 96, and 120 hour time points. These were diluted with ethanol (1.0 mL), and analyzed by HPLC. […] These were diluted with ethanol (1.0 mL) and analyzed by GC.
Instruments and Conditions Used for Analysis:
High pressure liquid chromatography: Agilent XDB C18 50×4.6 mm 1.8 micron column
Solvent A—Water (0.1% TFA)
Solvent B—Acetonitrile (0.07% TFA)
Gradient—5 min 95% A to 95% B then 1 minute hold. 1.5 mL/min
UV Detection (integration) @ 210 and 254 nm
HP 6890GC Column=Agilent DB-5 15 m×0.25 mm capillary column.
35° C. start (2 min hold), ramping to 100° C. at 5° C. per minute
Flame Ion Detection (integration)

Row | Compound | amount of aldehyde remaining | loss of aldehyde [%] | reduction of autoxidation due to deuterium versus un-enriched aldehyde (after a period of approximately 24 hours)
1 | [2H]C(=O)c1ccccc1 [benzaldehyde-D] | approximately 90% | 10 | over 50%
2 | O=Cc1ccccc1 [benzaldehyde-H, benzaldehyde, reference compound] | approximately 30% | 70 | 
